{"source": "patent US20130158090A1", "about": "“METRONIDAZOLE ESTERS FOR TREATING ROSACEA” (GALDERMA RESEARCH & DEVELOPMENT, priority 2010, published 2013)", "key": {"[1]": {"system": "human neonatal keratinocytes", "test": "Stability on keratinocyte cultures", "assay_type": "in vitro ADME", "conditions": "human neonatal keratinocyte cultures, comparative esters", "method": "(§1) The stability on keratinocyte cultures is evaluated using human neonatal keratinocytes (Cell'N Tech) cultured in a 75 cm^2 flask and detached at 90-100% of confluence with vegetable trypsin (trypLE GIBCO). The compound of formula (I) was tested at 2 μM in the medium CNT-057 (Cell'N Tech) supplemented with 0.1% pluronic acid in 24-well plates. The final DMSO concentration is 0.1%. Degradation kinetics are performed with a Tecan EVO robot over 24 hours. The samples taken are then assayed by LC/MS/MS (Micromass) in comparison with a calibration range of the test product, prepared under the same conditions as the samples (⅓ culture medium and ⅔ methanol). The chromatographic conditions are optimized for each product. An assay of the appearance of metronidazole is also performed using these same samples."}, "[2]": {"test": "Stability on keratinocyte cultures", "assay_type": "in vitro ADME, human", "conditions": "human neonatal keratinocyte culture, 2 μM, degradation kinetics over 24 hours, LC/MS/MS; read-out: half-life time (t1/2) (converted)", "method": "as §1"}, "[3]": {"system": "oedema induced by arachidonic acid (AA) on mouse ear", "test": "Acute inflammation on mouse ear: arachidonic acid-induced oedema", "assay_type": "in vivo", "conditions": "1 hour after application", "method": "The anti-inflammatory activities of the compound of formula (I) in racemic form, of the S enantiomer of the compound of formula (I), of metronidazole and of ibuprofen were measured in an in vivo test performed on a mouse model. This model consists in inducing inflammation of the mouse ear with a single application of arachidonic acid (AA). Female Balb/c ByJlco mice are used. The oedema is induced by applying to the mouse's ear 20 μL of AA dissolved to 4% in a 1/1 THF/methanol mixture. The anti-inflammatory activities of the S enantiomer of the compound of formula (I), of the compound of formula (I) in racemic form, of metronidazole and of ibuprofen were evaluated after topical application onto the inner face of the mouse's ear of 20 μL of a solution of the compound in a 1/1 THF/methanol mixture containing 4% AA.\nSolutions containing 0.01%; 0.03%; 0.1%; 0.3%; 1% and 2% of the test compound are thus prepared. The percentages correspond to the weight of the test compound per volume of solution. The oedema is evaluated, 1 hour after application, by measuring the thickness of the ear using an Oditest® micrometer. The oedema induced by AA alone is evaluated, 1 hour after application, by measuring the thickness of the ear using an Oditest® micrometer. It is evaluated relative to a group comprising only the vehicle (1/1 THF/methanol). […]"}, "[4]": {"system": "oedema induced by TPA (phorbol 12-myristate-13-acetate) on mouse ear", "test": "Acute inflammation on mouse ear: oedema induced by TPA", "assay_type": "in vivo", "conditions": "6 hours after application", "method": "The anti-inflammatory activities of the compound of formula (I) in racemic form, of the S enantiomer of the compound of formula (I), of metronidazole and of ibuprofen were measured in an in vivo test performed on a mouse model.\nThe model used is the model of mouse ear inflammation induced by a single application of TPA (phorbol 12-myristate-13-acetate). Female Balb/c ByJlco mice are used.\nThe oedema is induced by applying to the ear 20 μl of 0.01% TPA dissolved in ethanol.\nThe racemic compound of formula (I) is dissolved, at the desired concentration, in the 0.01% TPA solution and thus applied to a group of mice at the same time as the TPA.\nThe S enantiomer of the compound of formula (I) is dissolved, at the desired concentration, in the 0.01% TPA solution and thus applied to another group of mice at the same time as the TPA.\nSimilarly, ibuprofen (racemic) is dissolved, at the desired concentration, in the 0.01% TPA solution and is applied to another group of mice at the same time as the TPA. Finally, metronidazole is dissolved, at the desired concentration, in the 0.01% TPA solution and is applied to another group of mice at the same time as the TPA.\nThe oedema is evaluated, 6 hours after application of the test product, by measuring the thickness of the ear using an Oditest® micrometer.\nThe TPA-induced oedema is evaluated relative to the ethanol vehicle group. […]"}}, "data": [{"smiles": "Cc1ncc([N+](=O)[O-])n1CCOC(=O)c1cc(-c2ccc(F)cc2F)ccc1O", "note": "[metronidazole ester with diflunisal]", "values": [{"measurement": "hydrolysis / stability on keratinocyte cultures", "setting": "[1]", "result": "do not become hydrolysed"}]}, {"smiles": "Cc1ncc([N+](=O)[O-])n1CCOC(=O)[C@@H](C)c1ccc(CC(C)C)cc1", "note": "[S enantiomer of the compound of formula (I), 2-(2-methyl-5-nitroimidazol-1-yl)ethyl (S)-2-(4-isobutylphenyl)propionate]", "values": [{"measurement": "half-life at 2 μM", "setting": "[2]", "result": 20, "unit": "h"}, {"measurement": "inhibition of the oedema induced by AA alone", "setting": "[3]; dose of 1% (w/v) topical on mouse ear", "result": 49, "unit": "%"}]}, {"smiles": "Cc1ncc([N+](=O)[O-])n1CCOC(=O)C(C)c1ccc(CC(C)C)cc1", "note": "(racemic) [racemic compound of formula (I), 2-(2-methyl-5-nitroimidazol-1-yl)ethyl 2-(4-isobutylphenyl)propionate]", "values": [{"measurement": "half-life at 2 μM", "setting": "[2]", "result": 3, "unit": "h"}, {"measurement": "IC50 (concentration at which 50% inhibition of the oedema induced by TPA alone is observed)", "setting": "[4]; topical with 0.01% TPA", "result": 0.28, "unit": "%"}]}, {"smiles": "Cc1ncc([N+](=O)[O-])n1CCOC(=O)C1CCn2c(C(=O)c3ccccc3)ccc21", "note": "(stereo not shown) [metronidazole ester with ketorolac]", "values": [{"measurement": "hydrolysis / stability on keratinocyte cultures", "setting": "[1]", "result": "do not become hydrolysed"}]}, {"smiles": "COc1ccc2c(c1)c(CC(=O)OCCn1c([N+](=O)[O-])cnc1C)c(C)n2C(=O)c1ccc(Cl)cc1", "note": "[metronidazole ester with indomethacin]", "values": [{"measurement": "hydrolysis / stability on keratinocyte cultures", "setting": "[1]", "result": "do not become hydrolysed"}]}, {"smiles": "Cc1ncc([N+](=O)[O-])n1CCOC(=O)c1cccnc1Nc1cccc(C(F)(F)F)c1", "note": "[metronidazole ester with niflumic acid]", "values": [{"measurement": "hydrolysis / stability on keratinocyte cultures", "setting": "[1]", "result": "do not become hydrolysed"}]}, {"smiles": "Cc1ncc([N+](=O)[O-])n1CCO", "note": "[metronidazole]", "values": [{"measurement": "anti-inflammatory activity", "setting": "[3]; AA-induced mouse ear oedema, topical", "result": "no anti-inflammatory activity"}, {"measurement": "anti-inflammatory activity", "setting": "[4]; topical", "result": "no anti-inflammatory activity"}]}]}
